The text below walks through data of article PMC4083273 (Bioscience Reports, 2014).

Each structure is given as a SMILES string.

Experiment [1] has as its target T1, CobR (corrin reductase) (Brucella melitensis, UniProt Q8YHT7).
T1 construct: gene BMEI0709
The note with it: crystals grown with 2 mM FAD, pH 4.6; FAD in both active sites; second site (additional folded FAD per subunit).

The target in experiment [2] is T1, CobR (corrin reductase). The note with it: reference without excess FAD 70 °C, 50 mM NaPi, 100 mM NaCl pH 6.5, 125°/h, irreversible unfolding.

T1 sequence (Q8YHT7 1-173): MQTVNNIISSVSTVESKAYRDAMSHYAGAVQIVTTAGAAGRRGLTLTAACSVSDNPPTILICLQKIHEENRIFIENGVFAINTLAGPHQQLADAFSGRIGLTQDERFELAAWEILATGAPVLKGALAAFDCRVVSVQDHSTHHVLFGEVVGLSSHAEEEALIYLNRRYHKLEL

Take `Cc1cc2nc3c(=O)[nH]c(=O)nc-3n(C[C@H](O)[C@H](O)[C@H](O)COP(=O)(O)OP(=O)(O)OC[C@H]3O[C@@H](n4cnc5c(N)ncnc54)[C@H](O)[C@@H]3O)c2cc1C` [FAD]: in experiment [1], the “X-ray crystallography, 2.2 Å” value is reported as “FAD is seen occupying both active sites of the homodimer”. In experiment [2], the “apparent Tm with excess FAD” value amounted to 80 °C.
